tested on: etoposide-treated IMR-90 cells; experiment: Etoposide-induced senescence model, resazurin cell viability (screen and dose-response); format: cell-based, human; conditions: etoposide-induced senescence model; ratio of IC50 values between etoposide- and DMSO-treated IMR-90 fibroblasts
Experimental: Cell culture. Human lung fibroblast (IMR-90) cells were obtained from ATCC (CCL-186) and passaged less than 10 times (less than 30 population doublings) for all experiments described in this example, with the exception of high-passage cells used in the model of replicative senescence (see the section on Replicative senescence below). Cells were cultured in growth media comprising Eagle's Minimum Essential Medium (EMEM: ATCC 30-2003) supplemented with 10% fetal bovine serum (FBS: Thermo Fisher 16140071) and 1% penicillin-streptomycin (Thermo Fisher 15070063). Cells were incubated in a humidity-controlled incubator at 37° C., with 5% CO2. Cells were detached using trypsin-EDTA (0.05%; Gibco 25300120).
Etoposide-induced senescence. IMR-90 cells were cultured as described above. At between 30 to 50% confluence, the media was replaced with complete growth media containing vehicle (0.5% dimethyl sulfoxide: DMSO, MilliporeSigma D5879) or complete growth media containing 50 μM etoposide (prepared as a 1:200 dilution of a 10 mM stock solution in DMSO; etoposide, MilliporeSigma E1383). Cells were treated for 2 days, after which the media was replaced with fresh growth media and cells were allowed to recover for 4 days. Cells were then plated as described below.
Chemical screening. For all screening experiments. 99 μL of cells were plated into each well of a 96-well clear flat-bottom, black polystyrene tissue-culture-treated plate (Corning 3904) at a density of ˜10+ cells/well. Plates were incubated overnight for adhesion. The day after plating. 1 μL of each compound, prepared as either a 1 mM stock solution in DMSO (10 μM final concentration screen) or 0.1 mM stock solution in DMSO (1 μM final concentration screen), was added to each well using an Agilent Bravo liquid handler. A built-in slow mixing step involving aspirating and dispensing was used to enhance distribution of the added compounds in solution. Cells were incubated for 3 days, after which resazurin (MilliporeSigma R^7017) was added to each well to a final concentration of 0.15 mM. After an additional 1 day of incubation, the fluorescence excitation/emission at 550/590 nm was read using a SpectraMaxR M3 plate reader and manufacturer software (SoftMax Pro R 6). Experiments were performed in biological duplicate.
Three-fold serial dilutions of compound were prepared in DMSO, then added to cell plates (final concentration of DMSO. 1%). Cell viability was then assayed as detailed above, and resazurin fluorescence values were linearly interpolated with respect to values from empty and positive control (non-treatment) wells. Experiments were performed in biological duplicate each on two independent occasions. When possible, chemical stocks from commercial suppliers were used: econazole nitrate (Cayman Chemical 20223), artenimol (Cayman Chemical 19846), and ABT-263 (Cayman Chemical 11500) were from Cayman Chemical, and dehydrodeguelin was aliquoted from the screening library.
Calculation of cellular viability values in dose-response curves. […] For each sample, the fluorescence intensity value was normalized by the mean of two untreated control values. Cellular viability values are therefore indicated as fractions of the cellular viability of untreated controls. Vehicle (1% DMSO) control values are included in each dose-response curve. Experiments were performed in biological duplicate each on two independent occasions.
Calculation of baseline cellular viability values. […] Additionally, baseline cellular viability values were calculated for untreated cells at the start of the experiment. Resazurin was added to a final concentration of 0.15 mM on the day of seeding (corresponding to day 0 in FIG. 7).

Q: How did the “Therapeutic Index (TI)” value turn out when Cc1cc(C)c(NC(=O)CSc2nc3ccc(NC(=O)c4ccccc4C)cc3s2)c(C)c1 [compound 72] was run?
A: ++ (compounds with a TI of 1 to 5 were labelled as ++)

Q: For CCCCOc1ccc(NC(=O)CSc2nc3ccc(NC(=O)c4ccc(C(C)(C)C)cc4)cc3s2)cc1 [compound 9], which “Therapeutic Index (TI)” value is on record?
A: +++ (compounds with a TI of >5 were labeled as +++)

Q: With COC(=O)c1ccc(NC(=O)CSc2nc3ccc(NC(=O)c4ccc(C)cc4)cc3s2)cc1 [compound 169] as the compound, how does the “Therapeutic Index (TI)” value read?
A: + (Compounds with a TI of <1 were labelled as +)

Q: For O=C(CSc1nc2ccc(NC(=O)c3ccc(F)cc3)cc2s1)Nc1cccc(Cl)c1 [compound 51], which “Therapeutic Index (TI)” value is on record?
A: ++ (compounds with a TI of 1 to 5 were labelled as ++)

Q: For COc1ccc(C(=O)Nc2ccc3nc(SCC(=O)Nc4ccccc4)sc3c2)c(F)c1 [compound 172], which “Therapeutic Index (TI)” value is on record?
A: +++ (compounds with a TI of >5 were labeled as +++)

Q: For Cc1ccccc1C(=O)Nc1ccc2nc(SCC(=O)NCCOc3ccccc3)sc2c1 [compound 93], which “Therapeutic Index (TI)” value is on record?
A: ++ (compounds with a TI of 1 to 5 were labelled as ++)

Q: How did the “Therapeutic Index (TI)” value turn out when COc1ccccc1C(=O)Nc1ccc2nc(SCC(=O)Nc3c(C)cc(C)cc3C)sc2c1 [compound 44] was run?
A: ++ (compounds with a TI of 1 to 5 were labelled as ++)

Q: With COc1ccc(NC(=O)CSc2nc3ccc(NC(=O)c4ccc(Cl)cc4)cc3s2)cc1 [compound 111] as the compound, how does the “Therapeutic Index (TI)” value read?
A: ++ (compounds with a TI of 1 to 5 were labelled as ++)

Q: For COc1ccc(NC(=O)CSc2nc3ccc(NC(=O)c4ccc(C(C)(C)C)cc4)cc3s2)cc1 [compound 117], which “Therapeutic Index (TI)” value is on record?
A: ++ (compounds with a TI of 1 to 5 were labelled as ++)

Q: How did the “Therapeutic Index (TI)” value turn out when Cc1ccccc1C(=O)Nc1ccc2nc(SCC(=O)Nc3ccc(F)cc3)sc2c1 [compound 20] was run?
A: +++ (compounds with a TI of >5 were labeled as +++)

Q: For COc1ccccc1C(=O)Nc1ccc2nc(SCC(=O)Nc3cc(Cl)ccc3C)sc2c1 [compound 160], which “Therapeutic Index (TI)” value is on record?
A: + (Compounds with a TI of <1 were labelled as +)

Q: Which “Therapeutic Index (TI)” value does the source give for COc1ccccc1C(=O)Nc1ccc2nc(SCC(=O)Nc3ccccc3Cl)sc2c1 [compound 170] here?
A: + (Compounds with a TI of <1 were labelled as +)

Q: With CCOc1ccc(C(=O)Nc2ccc3nc(SCC(=O)Nc4ccccc4)sc3c2)cc1 [compound 119] as the compound, how does the “Therapeutic Index (TI)” value read?
A: ++ (compounds with a TI of 1 to 5 were labelled as ++)

Q: CCOc1ccc(C(=O)Nc2ccc3nc(SCC(=O)Nc4ccc(F)cc4)sc3c2)cc1 [compound 120] was tested. Which “Therapeutic Index (TI)” value did it give?
A: ++ (compounds with a TI of 1 to 5 were labelled as ++)

Q: How did the “Therapeutic Index (TI)” value turn out when CCc1cccc(CC)c1NC(=O)CSc1nc2ccc(NC(=O)c3ccccc3C)cc2s1 [compound 69] was run?
A: ++ (compounds with a TI of 1 to 5 were labelled as ++)

Q: CCOc1ccc(C(=O)Nc2ccc3nc(SCC(=O)Nc4cc(C)cc(C)c4)sc3c2)cc1 [compound 43] was tested. Which “Therapeutic Index (TI)” value did it give?
A: ++ (compounds with a TI of 1 to 5 were labelled as ++)

Q: Which “Therapeutic Index (TI)” value does the source give for CCC(Sc1nc2ccc(NC(=O)c3ccccc3)cc2s1)C(=O)Nc1ccc(C(C)=O)cc1 (stereo not drawn) [compound 15] here?
A: +++ (compounds with a TI of >5 were labeled as +++)

Q: COc1ccccc1C(=O)Nc1ccc2nc(SCC(=O)N(C)c3ccccc3)sc2c1 [compound 71] was tested. Which “Therapeutic Index (TI)” value did it give?
A: ++ (compounds with a TI of 1 to 5 were labelled as ++)

Q: For COc1cccc(NC(=O)CSc2nc3ccc(NC(=O)c4ccccc4)cc3s2)c1 [compound 153], which “Therapeutic Index (TI)” value is on record?
A: + (Compounds with a TI of <1 were labelled as +)

Q: Which “Therapeutic Index (TI)” value does the source give for CCOc1ccc(C(=O)Nc2ccc3nc(SCC(=O)N(C)c4ccccc4)sc3c2)cc1 [compound 49] here?
A: ++ (compounds with a TI of 1 to 5 were labelled as ++)

Q: How did the “Therapeutic Index (TI)” value turn out when Cc1cc(C)c(NC(=O)C(C)Sc2nc3ccc(NC(=O)c4ccccc4)cc3s2)c(C)c1 (stereo not drawn) [compound 139] was run?
A: ++ (compounds with a TI of 1 to 5 were labelled as ++)

Q: Which “Therapeutic Index (TI)” value does the source give for Cc1ccccc1C(=O)Nc1ccc2nc(SCC(=O)N(C)c3ccccc3)sc2c1 [compound 125] here?
A: ++ (compounds with a TI of 1 to 5 were labelled as ++)

Q: Which “Therapeutic Index (TI)” value does the source give for O=C(CSc1nc2ccc(NC(=O)c3ccccc3Br)cc2s1)Nc1ccccc1 [compound 127] here?
A: ++ (compounds with a TI of 1 to 5 were labelled as ++)

Q: For CCOc1ccc(C(=O)Nc2ccc3nc(SCC(=O)Nc4cccc(C)c4)sc3c2)cc1 [compound 80], which “Therapeutic Index (TI)” value is on record?
A: ++ (compounds with a TI of 1 to 5 were labelled as ++)

Q: How did the “Therapeutic Index (TI)” value turn out when COc1ccc(C(=O)Nc2ccc3nc(SCC(=O)Nc4ccc(C)c(Cl)c4)sc3c2)cc1 [compound 74] was run?
A: ++ (compounds with a TI of 1 to 5 were labelled as ++)

Q: How did the “Therapeutic Index (TI)” value turn out when COc1ccccc1C(=O)Nc1ccc2nc(SCC(=O)Nc3ccc(Cl)cc3)sc2c1 [compound 112] was run?
A: ++ (compounds with a TI of 1 to 5 were labelled as ++)

Q: How did the “Therapeutic Index (TI)” value turn out when Cc1ccc(Cl)cc1NC(=O)CSc1nc2ccc(NC(=O)c3ccccc3C)cc2s1 [compound 46] was run?
A: ++ (compounds with a TI of 1 to 5 were labelled as ++)

Q: For COc1cccc(C(=O)Nc2ccc3nc(SCC(=O)Nc4ccccc4)sc3c2)c1 [compound 53], which “Therapeutic Index (TI)” value is on record?
A: ++ (compounds with a TI of 1 to 5 were labelled as ++)

Q: For Cc1cccc(NC(=O)CSc2nc3ccc(NC(=O)c4ccccc4Cl)cc3s2)c1C [compound 95], which “Therapeutic Index (TI)” value is on record?
A: ++ (compounds with a TI of 1 to 5 were labelled as ++)

Q: COc1ccccc1NC(=O)CSc1nc2ccc(NC(=O)c3ccccc3)cc2s1 [compound 167] was tested. Which “Therapeutic Index (TI)” value did it give?
A: + (Compounds with a TI of <1 were labelled as +)

Q: Which “Therapeutic Index (TI)” value does the source give for Cc1cc(C)c(NC(=O)C(C)Sc2nc3ccc(NC(=O)c4ccccc4C)cc3s2)c(C)c1 (stereo not drawn) [compound 144] here?
A: + (Compounds with a TI of <1 were labelled as +)

Q: How did the “Therapeutic Index (TI)” value turn out when COc1ccccc1NC(=O)CSc1nc2ccc(NC(=O)c3ccc(C)cc3)cc2s1 [compound 39] was run?
A: ++ (compounds with a TI of 1 to 5 were labelled as ++)

Q: Which “Therapeutic Index (TI)” value does the source give for COc1ccc(NC(=O)CSc2nc3ccc(NC(=O)c4ccccc4Cl)cc3s2)cc1 [compound 66] here?
A: ++ (compounds with a TI of 1 to 5 were labelled as ++)

Q: COc1cccc(C(=O)Nc2ccc3nc(SCC(=O)N(C)c4ccccc4)sc3c2)c1 [compound 45] was tested. Which “Therapeutic Index (TI)” value did it give?
A: ++ (compounds with a TI of 1 to 5 were labelled as ++)

Q: For CCCCOc1ccc(NC(=O)CSc2nc3ccc(NC(=O)c4ccc(Cl)cc4Cl)cc3s2)cc1 [compound 129], which “Therapeutic Index (TI)” value is on record?
A: ++ (compounds with a TI of 1 to 5 were labelled as ++)

Q: Which “Therapeutic Index (TI)” value does the source give for CCCCOc1ccc(NC(=O)CSc2nc3ccc(NC(=O)c4ccccc4)cc3s2)cc1 [compound 89] here?
A: ++ (compounds with a TI of 1 to 5 were labelled as ++)

Q: Which “Therapeutic Index (TI)” value does the source give for Cc1ccc(Cl)cc1NC(=O)CSc1nc2ccc(NC(=O)c3ccc(F)cc3)cc2s1 [compound 61] here?
A: ++ (compounds with a TI of 1 to 5 were labelled as ++)

Q: For CCOc1ccc(C(=O)Nc2ccc3nc(SCC(=O)Nc4ccccc4Cl)sc3c2)cc1 [compound 64], which “Therapeutic Index (TI)” value is on record?
A: ++ (compounds with a TI of 1 to 5 were labelled as ++)

Q: With Cc1ccc(C(=O)Nc2ccc3nc(SCC(=O)N(C)c4ccccc4)sc3c2)cc1 [compound 81] as the compound, how does the “Therapeutic Index (TI)” value read?
A: ++ (compounds with a TI of 1 to 5 were labelled as ++)

Q: Which “Therapeutic Index (TI)” value does the source give for COc1ccc(NC(=O)CSc2nc3ccc(NC(=O)c4cccc(OC)c4)cc3s2)cc1 [compound 12] here?
A: +++ (compounds with a TI of >5 were labeled as +++)

Q: How did the “Therapeutic Index (TI)” value turn out when COc1ccc(Cl)cc1NC(=O)CSc1nc2ccc(NC(=O)c3ccc(C)cc3)cc2s1 [compound 131] was run?
A: ++ (compounds with a TI of 1 to 5 were labelled as ++)

Q: O=C(CSc1nc2ccc(NC(=O)c3ccc(Cl)cc3Cl)cc2s1)Nc1ccccc1 [compound 4] was tested. Which “Therapeutic Index (TI)” value did it give?
A: +++ (compounds with a TI of >5 were labeled as +++)
